Source: paper PMC5421785, “Citrullination only infrequently impacts peptide binding to HLA class II MHC” (PLoS ONE, 2017)
Read-outs that look alike come from different tables or passages of the source. Each block holds one molecule with its values, some of them ahead of it. Square brackets hold non-standard residues; d marks the D form. Ends that are not written are not given here. Peptide text beside a SMILES is read from it. Cit = NC(=O)NCCC[C@H](N)C(=O)O

Columns and labels:
[1] = biological target: T1, HLA-DRB1*01:01 (Homo sapiens, UniProt P01903+P01911, A100R/D57E/F55L/F60I/F76Y/I96L/L162R/M171V/P40L/Q125E/R42F/V115G/Y59C); assay: HLA class II peptide binding, inhibition of radiolabeled peptide binding to purified MHC; settings: for DRB1*01:01 binding capacity, WT/cit ratio: ratio of WT IC50 to Cit IC50, >1 = citrullination increases binding
T1 construct: EBV transformed homozygous cell lines were used as sources of MHC molecules; endogenous in cells; host or cells: EBV transformed homozygous cell lines

[2] = biological target: T2, HLA-DRB1*04:01 (Homo sapiens, UniProt P01903+P01911, A100K/A169T/F76Y/I96L/K127E/L162R/M171V/N62H/P40V/Q125Y/R42H/S133A/S149N/S66Y/V115G/V209L/W38E); assay: as above; settings: for DRB1*04:01 binding capacity, WT/cit ratio: ratio of WT IC50 to Cit IC50, >1 = citrullination increases binding
T2 construct: EBV transformed homozygous cell lines were used as sources of MHC molecules; endogenous in cells; host or cells: EBV transformed homozygous cell lines

[3] = citrullinated 15-mer peptide (X = citrulline), purified HLA-DRB1*01:01, read-out: DRB1*01:01 binding capacity, Cit peptide (IC50 nM)
[4] = citrullinated 15-mer peptide (X = citrulline), purified HLA-DRB1*04:01, read-out: DRB1*04:01 binding capacity, Cit peptide (IC50 nM)
[5] = citrullinated 15-mer (X), purified MHC, inhibition of radiolabeled peptide binding, dash = IC50 >40,000 nM, read-out: DRB1*01:01 binding capacity, Cit peptide (IC50 nM)
[6] = citrullinated 15-mer (X), purified MHC, inhibition of radiolabeled peptide binding, dash = IC50 >40,000 nM, read-out: DRB1*04:01 binding capacity, Cit peptide (IC50 nM)
[7] = wild-type (unmodified Arg) 15-mer peptide, purified HLA-DRB1*01:01, read-out: DRB1*01:01 binding capacity, WT peptide (IC50 nM)
[8] = wild-type (unmodified Arg) 15-mer peptide, purified HLA-DRB1*04:01, read-out: DRB1*04:01 binding capacity, WT peptide (IC50 nM)
[9] = read-out: DRB1*01:01 binding capacity, WT peptide (IC50 nM)
[10] = read-out: DRB1*04:01 binding capacity, WT peptide (IC50 nM)

- IC50 [1, 3]: > 40000 nM
- DRB1*01:01 binding capacity, WT/cit ratio [1]: 1.0
- IC50 [2, 4]: > 40000 nM
- DRB1*04:01 binding capacity, WT/cit ratio [2]: 1.0
Molecule: CC(C)[C@H](NC(=O)[C@H](CC(=O)O)NC(=O)[C@H](CCCCN)NC(=O)[C@H](CC(=O)O)NC(=O)[C@H](CC(N)=O)NC(=O)[C@H](Cc1ccc(O)cc1)NC(=O)[C@H](CCCNC(N)=O)NC(=O)[C@H](CCC(N)=O)NC(=O)CNC(=O)[C@H](CC(=O)O)NC(=O)[C@@H](N)CCC(N)=O)C(=O)N[C@@H](Cc1c[nH]c2ccccc12)C(=O)N[C@@H](CCCCN)C(=O)N1CCC[C@H]1C(=O)N[C@@H](CCC(=O)O)C(=O)O [QDGQXYNDKDVWKPE] (H-QDGQ[Cit]YNDKDVWKPE-OH; N-terminus and C-terminus assumed)

- IC50 [1, 5]: 524 nM
- IC50 [2, 6]: 2520 nM
Molecule: CC(C)C[C@H](NC(=O)[C@H](CO)NC(=O)[C@H](CCCNC(N)=O)NC(=O)[C@H](CO)NC(=O)[C@@H](NC(=O)[C@H](CO)NC(=O)[C@@H]1CCCN1)[C@@H](C)O)C(=O)N[C@@H](Cc1ccc(O)cc1)C(=O)N[C@@H](C)C(=O)N[C@@H](CO)C(=O)N[C@@H](CO)C(=O)N1CCC[C@H]1C(=O)NCC(=O)NCC(=O)N[C@H](C(=O)O)C(C)C [PSTSXSLYASSPGGV]

- IC50 [1, 7]: 326 nM
- IC50 [2, 8]: 7000 nM
Molecule: CC[C@H](C)[C@H](N)C(=O)N[C@@H](CO)C(=O)N[C@@H](CC(C)C)C(=O)N1CCC[C@H]1C(=O)N[C@@H](CC(C)C)C(=O)N1CCC[C@H]1C(=O)N[C@@H](CC(N)=O)C(=O)N[C@@H](Cc1ccccc1)C(=O)N[C@@H](CO)C(=O)N[C@@H](CO)C(=O)N[C@@H](CC(C)C)C(=O)N[C@@H](CC(N)=O)C(=O)N[C@@H](CC(C)C)C(=O)N[C@@H](CCCNC(=N)N)C(=O)N[C@@H](CCC(=O)O)C(=O)O [Vimentin 411 WT]

- IC50 [1, 9]: 34600 nM
- IC50 [2, 10]: > 40000 nM
Molecule: QGKSRLGDLYEEEMR [Vimentin 141 WT]

- IC50 [1, 9]: 5 nM
- IC50 [2, 10]: 1220 nM
Molecule: VTTSTRTYSLGSALR [Vimentin 31 WT]

- IC50 [1, 3]: > 40000 nM
- DRB1*01:01 binding capacity, WT/cit ratio [1]: 0.318
- IC50 [2, 4]: > 40000 nM
- DRB1*04:01 binding capacity, WT/cit ratio [2]: 1.0
Molecule: CSCC[C@H](NC(=O)[C@H](CCC(=O)O)NC(=O)[C@H](CCCNC(=N)N)NC(=O)[C@H](CCSC)NC(=O)[C@H](CCC(N)=O)NC(=O)[C@H](CCCNC(N)=O)NC(=O)[C@H](CCC(=O)O)NC(=O)[C@H](CC(C)C)NC(=O)[C@H](CO)NC(=O)[C@H](CCC(=O)O)NC(=O)[C@H](CC(N)=O)NC(=O)[C@@H](N)[C@@H](C)O)C(=O)N[C@@H](CCC(=O)O)C(=O)N[C@@H](CCC(=O)O)C(=O)N[C@@H](CC(N)=O)C(=O)O [TNESLEXQMREMEEN] (H-TNESLE[Cit]QMREMEEN-OH; N-terminus and C-terminus assumed)

- IC50 [1, 5]: 21 nM
- IC50 [2, 6]: 1090 nM
Molecule: CC(C)C[C@H](NC(=O)[C@H](C)NC(=O)[C@H](CO)NC(=O)CNC(=O)[C@H](CC(C)C)NC(=O)[C@H](CO)NC(=O)[C@H](Cc1ccc(O)cc1)NC(=O)[C@@H](NC(=O)[C@@H](N)CCCNC(=N)N)[C@@H](C)O)C(=O)N[C@@H](CCCNC(=N)N)C(=O)N1CCC[C@H]1C(=O)N[C@@H](CO)C(=O)N[C@H](C(=O)N[C@@H](CO)C(=O)N[C@@H](CCCNC(N)=O)C(=O)O)[C@@H](C)O [RTYSLGSALRPSTSX] (H-RTYSLGSALRPSTS[Cit]-OH)

- IC50 [1, 7]: 611 nM
- IC50 [2, 8]: 564 nM
Molecule: FAVEAANYQDTIGRL [Vimentin 351 WT]

- IC50 [1, 5]: 12 nM
- IC50 [2, 6]: 1550 nM
Molecule: CC(C)C[C@H](NC(=O)[C@H](C)NC(=O)[C@H](CO)NC(=O)CN)C(=O)N[C@@H](CCCNC(N)=O)C(=O)N1CCC[C@H]1C(=O)N[C@@H](CO)C(=O)N[C@H](C(=O)N[C@@H](CO)C(=O)N[C@@H](CCCNC(=N)N)C(=O)N[C@@H](CO)C(=O)N[C@@H](CC(C)C)C(=O)N[C@@H](Cc1ccc(O)cc1)C(=O)N[C@@H](C)C(=O)N[C@@H](CO)C(=O)O)[C@@H](C)O [GSALXPSTSRSLYAS]
